The record followed here is patent US10793557B2, “Sting agonist compounds” (Merck Sharp & Dohme Corp., priority 2018, dated 2020).

For one assay, the target named is T1, full-length HAQ STING (Homo sapiens, UniProt Q86WV6, G230A/H232R/R293Q/R71H).
T1 construct: AviTag (after GG linker) (C); HRV3C cleavage site (after GS linker) (C); HIS8 (C); made in house; host or cells: Trichoplusia ni (Hi-Five) insect cells infected with baculovirus (virus generated and amplified in Sf21 cells); used as a washed membrane preparation
Briefly: 3H-cGAMP filtration binding assay (HAQ STING). The note with it: competition with tritiated cGAMP, HAQ STING membrane. The gist of the method:
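Hi-Five (T. ni) membranes overexpressing the STING variant (2.2 ug/ml working) preincubated with compound 60 min at RT in PBS, then [3H]cGAMP (8 nM working stock) added for 60 min at RT. Bound radioactivity captured on GF/B filters and counted by scintillation; EC50 from 4-parameter fit of control-normalized activity.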

The target in the next assay is T2, full-length WT STING (Homo sapiens, UniProt Q86WV6, H232R).
T2 construct: AviTag (after gg linker) (C); HRV3C cleavage site (after gs linker) (C); HIS8 (C); made in house; host or cells: Trichoplusia ni (Hi-Five) insect cells infected with baculovirus (virus generated and amplified in Sf21 cells); used as a washed membrane preparation
Nature of the assay: 3H-cGAMP filtration binding assay (WT STING). The note with it: for EC50: competition with tritiated cGAMP, WT STING membrane; for inhibition at 20 µM: at 20,000 nM compound. The gist of the method:
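Competitive filtration binding of [3H]cGAMP (16 nM working stock) to T. ni membranes overexpressing full-length WT human STING, 60 min at RT in PBS. Bound radioactivity counted after GF/B filtration; 10-point 1:3 titration, EC50 from 4-parameter fit after control normalisation.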

In assay [1] the test system is secretion of interferon-beta from THP1 cells. Nature of the assay: IFN-β secretion in THP1 cell culture (5 h). In kind it is cell-based. The note with it: Homo sapiens, THP-1, 5 h, 30 uM cGAMP = 100%; for activation at 30 µM: compound at 30 μM, read-out: % Effect at 30 μM relative to 2′3′-cGAMP; for activation at 3 µM: compound at 3 uM, read-out: % Effect relative to 2′3′-cGAMP (@ 3 uM). The procedure, abridged: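 Thawed THP1 cells (0.8×10^6/mL, RPMI with 0.5% FBS) exposed to compounds 1.5–30000 nM (0.3% DMSO) for 5 h at 37 °C. Supernatant IFN-β quantified by AlphaLISA. Percent effect normalised to 30 uM cGAMP and DMSO controls; EC50 from 4-parameter fit.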

T1 sequence (Q86WV6 with tags, fused parts or gaps R71H/G230A/H232R/R293Q): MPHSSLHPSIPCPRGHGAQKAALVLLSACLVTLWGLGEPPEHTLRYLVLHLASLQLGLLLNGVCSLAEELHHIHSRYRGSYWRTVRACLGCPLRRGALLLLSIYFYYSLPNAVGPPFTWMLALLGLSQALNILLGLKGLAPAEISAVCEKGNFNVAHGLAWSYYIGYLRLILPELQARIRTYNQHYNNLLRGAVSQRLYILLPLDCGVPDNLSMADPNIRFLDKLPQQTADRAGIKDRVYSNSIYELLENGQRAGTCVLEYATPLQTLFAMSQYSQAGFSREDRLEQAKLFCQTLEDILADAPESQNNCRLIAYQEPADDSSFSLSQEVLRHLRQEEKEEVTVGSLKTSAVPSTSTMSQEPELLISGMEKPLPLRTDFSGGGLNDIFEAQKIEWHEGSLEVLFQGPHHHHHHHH
T2 sequence (Q86WV6 with tags, fused parts or gaps H232R): as the sequence (Q86WV6 with tags, fused parts or gaps R71H/G230A/H232R/R293Q) above, with H71R, A230G, Q293R counted along it

On to `COc1cc2sc(CC[C@H](C)C(=O)O)cc2c(F)c1OCCCOc1c(OC)cc2sc(C(=O)C[C@H](C)C(=O)O)cc2c1F` [Example 101, (S)-4-(5-(3-((2-((S)-3-carboxybutyl)-4-fluoro-6-methoxybenzo[b]thiophen-5-yl)oxy)propoxy)-4-fluoro-6-methoxybenzo[b]thiophen-2-yl)-2-methyl-4-oxobutanoic acid], for which the EC50 (commonly the midpoint of the concentration-response curve) came to 1 nM at full-length HAQ STING and 2 nM at full-length WT STING. Further, the activation at 30 µM in assay [1] is 85%.

For `COc1cc2sc(C(=O)C[C@H](C)C(=O)O)cc2cc1OCCCCCOc1cc2cc(C(=O)C[C@H](C)C(=O)O)sc2cc1OC` [Example 102, (2S,2′S)-4,4′-(5,5′-(pentane-1,5-diylbis(oxy))bis(6-methoxybenzo[b]thiophene-5,2-diyl))bis(2-methyl-4-oxobutanoic acid)], the EC50 turned out to be 15 nM on full-length HAQ STING and 213 nM at full-length WT STING. The activation at 30 µM in assay [1] stood at 69%.

On to `COc1cc2sc(C(=O)C[C@H](C)C(=O)O)cc2cc1OCCCCCOc1c(OC)cc2sc(C(=O)C[C@H](C)C(=O)O)cc2c1F` [Example 103, (S)-4-(5-((5-((2-((S)-3-carboxybutanoyl)-4-fluoro-6-methoxybenzo[b]thiophen-5-yl)oxy)pentyl)oxy)-6-methoxybenzo[b]thiophen-2-yl)-2-methyl-4-oxobutanoic acid], for which the EC50 at full-length HAQ STING came out at 22 nM; at full-length WT STING, 371 nM. In addition, the activation at 30 µM in assay [1] was 79%.

In the case of `COc1cc2sc(C(=O)C[C@H](C)C(=O)O)cc2cc1OCCCCCOc1cc2sc(C(=O)C[C@H](C)C(=O)O)cc2cc1OC` [Example 104, (S)-4-(5-((5-((2-((S)-3-carboxybutanoyl)-5-methoxybenzo[b]thiophen-6-yl)oxy)pentyl)oxy)-6-methoxybenzo [b]thiophen-2-yl)-2-methyl-4-oxobutanoic acid], the EC50 was 467 nM at full-length HAQ STING and 8900 nM at full-length WT STING. In addition, the activation at 30 µM in assay [1] was 35%.

For the compound `COc1cc2sc(C(=O)C[C@H](C)C(=O)O)cc2c(F)c1CCCOc1c(OC)cc2sc(CC[C@H](C)C(=O)O)cc2c1F` [Example 105, (S)-4-(5-(3-((2-((S)-3-carboxybutyl)-4-fluoro-6-methoxybenzo[b]thiophen-5-yl)oxy)propyl)-4-fluoro-6-methoxybenzo[b]thiophen-2-yl)-2-methyl-4-oxobutanoic acid], the EC50 came to 39 nM at full-length HAQ STING and 311 nM on full-length WT STING. Also, the activation at 30 µM in assay [1] was found to be 130%.

Take `COc1cc2sc(C(=O)C[C@H](C)C(=O)O)cc2c(F)c1CCCOc1c(OC)cc2sc(C(=O)[C@@H]3CC3C(=O)O)cc2c1F` (stereo partly drawn) [Example 106, trans-2-(5-(3-(2-((S)-3-carboxybutanoyl)-4-fluoro-6-methoxybenzo[b]thiophen-5-yl)propoxy)-4-fluoro-6-methoxybenzo[b]thiophene-2-carbonyl)cyclopropane carboxylic acid]: the EC50 on full-length HAQ STING stood at 10 nM; on full-length WT STING, 251 nM. For the same compound, the activation at 30 µM in assay [1] amounted to 74%.

In the case of `COc1cc2sc(C(=O)C[C@H](C)C(=O)O)cc2c(F)c1CCCOc1c(OC)cc2sc(C(=O)[C@@H]3CCC3C(=O)O)cc2c1F` (stereo partly drawn) [Example 107, trans-2-(5-(3-(2-((S)-3-carboxybutanoyl)-4-fluoro-6-methoxybenzo[b]thiophen-5-yl)propoxy)-4-fluoro-6-methoxybenzo[b]thiophene-2-carbonyl)cyclobutane carboxylic acid], the figures for the EC50 on full-length HAQ STING and on full-length WT STING were 1 nM and 2 nM, respectively. Further, the activation at 30 µM in assay [1] came to 108%.

For `COc1cc2sc(C(=O)C[C@@H](C)C(=O)O)cc2cc1CCCOc1c(OC)cc2sc(C(=O)C[C@@H](C)C(=O)O)cc2c1F` [Example 108, (R)-4-(5-(3-((2-((R)-3-carboxybutanoyl)-4-fluoro-6-methoxybenzo[b]thiophen-5-yl)oxy)propyl)-6-methoxybenzo[b]thiophen-2-yl)-2-methyl-4-oxobutanoic acid], the EC50 was found to be 35 nM on full-length HAQ STING and 244 nM on full-length WT STING. The activation at 30 µM in assay [1] worked out at 86%.

Consider `COc1cc2sc(C(=O)C[C@H](C)C(=O)O)cc2cc1CCCOc1c(OC)cc2sc(C(=O)C[C@@H](C)C(=O)O)cc2c1F` [Example 109, (S)-4-(5-(3-((2-((R)-3-carboxybutanoyl)-4-fluoro-6-methoxybenzo[b]thiophen-5-yl)oxy)propyl)-6-methoxybenzo[b]thiophen-2-yl)-2-methyl-4-oxobutanoic acid], for which the EC50 came to 10 nM at full-length HAQ STING and 39 nM on full-length WT STING. Besides, the activation at 30 µM in assay [1] is 96%.

The compound `COc1cc2sc(C(=O)C[C@H](C)C(=O)O)cc2cc1OCCCCCCOc1cc2cc(C(=O)C[C@H](C)C(=O)O)sc2cc1OC` [Example 110, (2S,2′S)-4,4′-(5,5′-(hexane-1,6-diylbis(oxy))bis(6-methoxybenzo[b]thiophene-5,2-diyl))bis(2-methyl-4-oxobutanoic acid)] registered an EC50 on full-length HAQ STING of 18600 nM. Further, on full-length WT STING, testing at 20 µM gave an inhibition of 15%. The activation at 30 µM in assay [1] was found to be 6%.

As to `COc1cc2sc(C(=O)C[C@H](C)C(=O)O)cc2cc1OCCCCCCOc1c(OC)cc2sc(C(=O)C[C@H](C)C(=O)O)cc2c1F` [Example 111, (S)-4-(5-((6-((2-((S)-3-carboxybutanoyl)-4-fluoro-6-methoxybenzo[b]thiophen-5-yl)oxy)hexyl)oxy)-6-methoxybenzo[b]thiophen-2-yl)-2-methyl-4-oxobutanoic acid], the EC50 on full-length HAQ STING is 861 nM. Besides, at 20 µM the inhibition at full-length WT STING was 50%. The activation at 3 µM in assay [1] came to 45%.

In the case of `COc1cc2cc(C(=O)C[C@H](C)C(=O)O)sc2cc1OCCCCCCOc1cc2sc(C(=O)C[C@H](C)C(=O)O)cc2cc1OC` [Example 112, (2S,2′S)-4,4′-(6,6′-(hexane-1,6-diylbis(oxy))bis(5-methoxybenzo[b]thiophene-6,2-diyl))bis(2-methyl-4-oxobutanoic acid)], a half-maximal effect on full-length HAQ STING (EC50) was put at 15500 nM. Also, at 20 µM the inhibition at full-length WT STING was 11%. In addition, the activation at 30 µM in assay [1] amounted to 23%.

Regarding `COc1cc2sc(C(=O)C[C@H](C)C(=O)O)cc2cc1CCCOc1c(OC)cc2sc(C(=O)[C@@H]3CCC3C(=O)O)cc2c1F` (stereo partly drawn) [Example 113, trans-2-(5-(3-(2-((S)-3-carboxybutanoyl)-6-methoxybenzo[b]thiophen-5-yl)propoxy)-4-fluoro-6-methoxybenzo[b]thiophene-2-carbonyl)cyclobutane carboxylic acid], the EC50 turned out to be 2 nM at full-length HAQ STING and 23 nM on full-length WT STING. In addition, the activation at 30 µM in assay [1] stood at 93%.

With `COc1cc2sc(C(=O)C[C@H](C)C(=O)O)cc2c(F)c1CCCOc1c(OC)cc2sc(CCC(C)(C)C(=O)O)cc2c1F` [Example 114, (S)-4-(5-(3-((2-(3-carboxy-3-methylbutyl)-4-fluoro-6-methoxybenzo[b]thiophen-5-yl)oxy)propyl)-4-fluoro-6-methoxybenzo[b]thiophen-2-yl)-2-methyl-4-oxobutanoic acid], the EC50 is 21 nM on full-length HAQ STING and 264 nM on full-length WT STING. Further, the activation at 30 µM in assay [1] was 57%.

In the case of `COc1cc2sc(CC[C@H](C)C(=O)O)cc2c(F)c1OCCCOc1c(OC)cc2sc(CC[C@H](C)C(=O)O)cc2c1F` [Example 116, (2S,2′S)-4,4′-(5,5′-(propane-1,3-diylbis(oxy))bis(4-fluoro-6-methoxybenzo[b]thiophene-5,2-diyl))bis(2-methylbutanoic acid)], the EC50 at full-length HAQ STING was 623 nM; on full-length WT STING, 4240 nM. In addition, the activation at 30 µM in assay [1] was 8%.

As to `COc1cc2sc(C(=O)CCC(=O)O)cc2c(F)c1OCCCCCOc1c(OC)cc2sc(C(=O)CCC(=O)O)cc2c1F` [Example 117, 4,4′-(5,5′-(pentane-1,5-diylbis(oxy))bis(4-fluoro-6-methoxybenzo[b]thiophene-5,2-diyl))bis(4-oxobutanoic acid)], the EC50 on full-length HAQ STING is 340 nM; on full-length WT STING, 2640 nM. The activation at 30 µM in assay [1] was 123%.

With `COc1cc2sc(C(=O)CCC(=O)O)cc2c(F)c1OCCCCCOc1c(OC)cc2sc(C(=O)C[C@H](C)C(=O)O)cc2c1F` [Example 118], the EC50 at full-length HAQ STING was 60 nM; on full-length WT STING, 5000 nM. In addition, the activation at 30 µM in assay [1] amounted to 117%.

With `COc1cc2sc(C(=O)C[C@H](C)C(=O)O)cc2c(F)c1OCCCCCOc1c(OC)cc2sc(C(=O)C[C@H](C)C(=O)O)cc2c1F` [Example 120, (2S,2′S)-4,4′-(5,5′-(pentane-1,5-diylbis(oxy))bis(4-fluoro-6-methoxybenzo[b]thiophene-5,2-diyl))bis(2-methyl-4-oxobutanoic acid)], the EC50 at full-length HAQ STING amounted to 38 nM; on full-length WT STING, 698 nM. Also, the activation at 3 µM in assay [1] was determined as 45%.
